From patent US12281057B2 (VERTEX PHARMACEUTICALS INCORPORATED, priority 2017, dated 2025)
pIC50: −log10 of the molar value.

Each molecule was assayed against truncated form of human NaV 1.8 with full channel activity (Homo sapiens, UniProt Q9Y5Y9) (assay: E-VIPR Assay Method A for detecting and measuring Nav inhibition (HEK cells, membrane potential FRET dyes, electrical stimulation)). Settings: HEK cells expressing human NaV 1.8, HS (human serum) in compound loading buffer, 11 point dose response, top dose 3 μM, Table 20, read-out: Nav 1.8 MedChem Optical Assay EVIPR Assay Method A HS IC50.
Sequence of truncated form of human NaV 1.8 with full channel activity (Q9Y5Y9 126-1722 limits assumed): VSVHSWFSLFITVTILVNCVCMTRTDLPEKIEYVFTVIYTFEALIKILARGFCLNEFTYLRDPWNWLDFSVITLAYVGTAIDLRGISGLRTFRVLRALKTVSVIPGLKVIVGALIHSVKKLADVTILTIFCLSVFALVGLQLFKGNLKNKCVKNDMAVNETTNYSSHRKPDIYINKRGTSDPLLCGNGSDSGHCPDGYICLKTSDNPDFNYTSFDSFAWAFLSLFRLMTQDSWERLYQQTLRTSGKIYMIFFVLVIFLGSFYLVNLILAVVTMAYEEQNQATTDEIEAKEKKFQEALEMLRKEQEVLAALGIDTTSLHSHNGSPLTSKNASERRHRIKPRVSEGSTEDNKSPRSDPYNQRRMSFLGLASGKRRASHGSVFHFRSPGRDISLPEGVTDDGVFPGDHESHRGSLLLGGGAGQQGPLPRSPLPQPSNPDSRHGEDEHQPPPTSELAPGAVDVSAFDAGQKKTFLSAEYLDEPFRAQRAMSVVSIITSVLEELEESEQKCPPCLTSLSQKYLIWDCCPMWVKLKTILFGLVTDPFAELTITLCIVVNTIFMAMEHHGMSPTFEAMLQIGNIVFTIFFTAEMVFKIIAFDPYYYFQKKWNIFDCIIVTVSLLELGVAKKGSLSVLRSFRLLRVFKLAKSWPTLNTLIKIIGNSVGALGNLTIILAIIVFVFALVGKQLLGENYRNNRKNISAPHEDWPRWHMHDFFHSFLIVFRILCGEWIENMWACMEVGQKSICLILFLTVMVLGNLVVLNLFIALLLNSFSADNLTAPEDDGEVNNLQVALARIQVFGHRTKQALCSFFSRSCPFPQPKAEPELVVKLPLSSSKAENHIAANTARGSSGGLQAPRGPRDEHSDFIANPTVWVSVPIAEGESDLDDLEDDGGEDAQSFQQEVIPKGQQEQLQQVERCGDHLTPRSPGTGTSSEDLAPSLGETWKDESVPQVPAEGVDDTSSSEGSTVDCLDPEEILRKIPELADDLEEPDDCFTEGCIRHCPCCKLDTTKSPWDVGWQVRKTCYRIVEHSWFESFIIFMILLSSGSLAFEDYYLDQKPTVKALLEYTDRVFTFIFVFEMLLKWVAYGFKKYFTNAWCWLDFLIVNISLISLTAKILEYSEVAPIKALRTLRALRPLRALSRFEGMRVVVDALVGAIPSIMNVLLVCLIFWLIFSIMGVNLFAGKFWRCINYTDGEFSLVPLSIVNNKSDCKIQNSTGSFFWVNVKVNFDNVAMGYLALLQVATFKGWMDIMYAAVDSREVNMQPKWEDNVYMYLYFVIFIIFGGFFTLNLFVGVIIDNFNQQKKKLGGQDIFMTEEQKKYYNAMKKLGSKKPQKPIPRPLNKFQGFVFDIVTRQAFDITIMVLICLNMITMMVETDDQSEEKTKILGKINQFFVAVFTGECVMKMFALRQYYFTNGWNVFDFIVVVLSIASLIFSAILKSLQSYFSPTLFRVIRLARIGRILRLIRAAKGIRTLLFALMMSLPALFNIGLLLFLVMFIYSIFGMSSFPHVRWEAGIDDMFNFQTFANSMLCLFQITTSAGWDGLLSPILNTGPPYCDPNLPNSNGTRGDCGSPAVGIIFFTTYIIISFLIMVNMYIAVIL
Type: cell-based
Text: E-VIPR Assay Method A for Detecting and Measuring Nav Inhibition Properties Sodium ion channels are voltage-dependent proteins that can be activated by inducing membrane voltage changes by applying electric fields. The electrical stimulation instrument and methods of use, referred to as E-VIPR, are described in International Publication No. WO 2002/008748 A3 and C.-J. Huang et al. Characterization of voltage-gated sodium channel blockers by electrical stimulation and fluorescence detection of membrane potential, 24 Nature Biotech. 439-46 (2006), both of which are incorporated by reference in their entirety. The instrument comprises a microtiter plate handler, an optical system for exciting the coumarin dye while simultaneously recording the coumarin and oxonol emissions, a waveform generator, a current- or voltage-controlled amplifier, and parallel electrode pairs that are inserted into assay plate wells. Under integrated computer control, this instrument passes user-programmed electrical stimulus protocols to cells within the wells of the microtiter plate. […] Sigma #F4135), 1% NEAA (Non-Essential Amino Acids, Life Tech #11140), 1% HEPES (Life Tech #15630), 1% Pen-Strep (Penicillin-Streptomycin; […] Cells were expanded in vented cap flasks, with 95% humidity and 5% CO2. Reagents and Stock Solutions: • 100 mg/mL Pluronic F-127 (Sigma #P2443), in dry DMSO • Compound Plates: […] 5% KIR 2.1 Bacmam virus (produced in-house), prepared as described in Section 3.3 of J. A. […] The solution was made by adding 10% Pluronic F127 stock equal to combined volumes of CC2-DMPE and DiSBAC6(3). The order of preparation was first mix Pluronic and CC2-DMPE, then add DiSBAC6(3), then while vortexing add Bath1/β-Cyclodextrin. […] Assay Protocol: […] Final DMSO concentration for all wells in the assay was 0.625% (0.75% DMSO was supplemented to the Compound Loading Buffer for a final DMSO concentration of 0.625%). […] 3) Cell plates were prepared. On the day of the assay, the media was aspirated, and the cells were washed three times with 80 μL of Bath-1 buffer, maintaining 25 μL residual volume in each well. 4) 25 μL per well of Hexyl Dye Solution was dispensed into the cell plates. The cells were incubated for 20 minutes at room temp or ambient conditions in darkness. 5) 80 μL per well of Compound Loading Buffer was dispensed into compound plates. 6) The cell plates were washed three times with 80 μL per well of Bath-1 Buffer, leaving 25 µL of residual volume. Then 25 uL per well from compound plate was transferred to each cell plate. The mixture was incubated for 30 minutes at room temp/ambient conditions. 7) The plate was read on E-VIPR using the current-controlled amplifier to deliver stimulation wave pulses using the following protocol: 1.25 Amps, 2.5 ms pulse width biphasic waveform, 10 Hz for 10 seconds at a scan rate of 200 Hz. A pre-stimulus recording was performed for 0.5 seconds to obtain the un-stimulated intensities baseline. The stimulatory waveform was followed by 0.5 seconds of post-stimulation recording to examine the relaxation to the resting state. Data Analysis: Data were analyzed and reported as normalized ratios of emission intensities measured in the 460 nm and 580 nm channels. The response as a function of time was reported as the ratios obtained using the following formula: […] The data were further reduced by calculating the initial (Ri) and final (Rf) ratios. These were the average ratio values during part or all of the pre-stimulation period and during sample points during the stimulation period. The fluorescence ratio (Rf/Ri) was then calculated and reported as a function of time. Control responses were obtained by performing assays in the presence of the positive control, and in the absence of pharmacological agents (DMSO vehicle negative control). Responses to the negative (N) and positive (P) controls were calculated as above. The compound antagonist % activity A was then defined as: [formula] where X is the ratio response of the test compound. […]
For [2H]C([2H])([2H])Oc1cc(OC(F)(F)F)ccc1Oc1ccc(C(F)(F)F)c(F)c1C(=O)Nc1ccc(F)c(C(N)=O)c1 [Compound 1, N-(3-carbamoyl-4-fluoro-phenyl)-2-fluoro-6-[2-(trideuteriomethoxy)-4-(trifluoromethoxy)phenoxy]-3-(trifluoromethyl)benzamide], the pIC50 was 9.15. Work on COc1cc(OC(F)(F)F)ccc1Oc1ccc(C(F)(F)F)c(F)c1C(=O)Nc1ccc(F)c(C(N)=O)c1 [Compound 2, N-(3-carbamoyl-4-fluoro-phenyl)-2-fluoro-6-[2-methoxy-4-(trifluoromethoxy)phenoxy]-3-(trifluoromethyl)benzamide] yielded a pIC50 of 9.00. With [2H]C([2H])([2H])Oc1cc(OC(F)(F)F)ccc1Oc1ccc(OC(F)(F)F)c(F)c1C(=O)Nc1ccc(F)c(C(N)=O)c1 [Compound 3, N-(3-carbamoyl-4-fluoro-phenyl)-2-fluoro-6-[2-(trideuteriomethoxy)-4-(trifluoromethoxy)phenoxy]-3-(trifluoromethoxy)benzamide] the pIC50 was 9.00. COc1cc(OC(F)(F)F)ccc1Oc1ccc(C(F)(F)F)c(F)c1C(=O)Nc1ccnc(C(N)=O)c1 [Compound 4, 4-[[2-fluoro-6-[2-methoxy-4-(trifluoromethoxy)phenoxy]-3-(trifluoromethyl)benzoyl]amino]pyridine-2-carboxamide] was tested, and the pIC50 was 8.70. Work on COc1cc(OC(F)(F)F)ccc1Oc1ccc(Cl)c(F)c1C(=O)Nc1ccnc(C(N)=O)c1 [Compound 5, 4-[[3-chloro-2-fluoro-6-[2-methoxy-4-(trifluoromethoxy)phenoxy]benzoyl]amino]pyridine-2-carboxamide] yielded a pIC50 of 8.70. [2H]C([2H])([2H])Oc1cc(OC(F)(F)F)ccc1Oc1ccc(C(F)(F)F)c(F)c1C(=O)Nc1ccnc(C(N)=O)c1 [Compound 6, 4-[[2-fluoro-6-[2-(trideuteriomethoxy)-4-(trifluoromethoxy)phenoxy]-3-(trifluoromethyl)benzoyl]amino]pyridine-2-carboxamide] gave a pIC50 of 8.52. For COc1cc(OC(F)(F)F)ccc1Oc1ccc(C(F)F)c(F)c1C(=O)Nc1ccc(F)c(C(N)=O)c1 [Compound 7, N-(3-carbamoyl-4-fluoro-phenyl)-3-(difluoromethyl)-2-fluoro-6-[2-methoxy-4-(trifluoromethoxy)phenoxy]benzamide], the pIC50 was 8.52. In the case of [2H]C([2H])([2H])Oc1cc(OC(F)(F)F)ccc1Oc1ccc(OC(F)(F)F)c(F)c1C(=O)Nc1ccnc(C(N)=O)c1 [Compound 8, 4-[[2-fluoro-6-[2-(trideuteriomethoxy)-4-(trifluoromethoxy)phenoxy]-3-(trifluoromethoxy)benzoyl]amino]pyridine-2-carboxamide], the pIC50 was 8.52. Work on NC(=O)c1cc(NC(=O)c2c(Oc3ccc(OC(F)(F)F)cc3Cl)ccc(C(F)(F)F)c2F)ccc1F [Compound 9, N-(3-carbamoyl-4-fluoro-phenyl)-6-[2-chloro-4-(trifluoromethoxy)phenoxy]-2-fluoro-3-(trifluoromethyl)benzamide] yielded a pIC50 of 8.52. Molecule Cc1cc(OC(F)(F)F)ccc1Oc1ccc(C(F)(F)F)c(F)c1C(=O)Nc1ccc(F)c(C(N)=O)c1 [Compound 10, N-(3-carbamoyl-4-fluoro-phenyl)-2-fluoro-6-[2-methyl-4-(trifluoromethoxy)phenoxy]-3-(trifluoromethyl)benzamide] has a pIC50 of 8.52. COc1cc(OC(F)(F)F)ccc1Oc1cc(F)c(F)c(F)c1C(=O)Nc1ccc(F)c(C(N)=O)c1 [Compound 11, N-(3-carbamoyl-4-fluoro-phenyl)-2,3,4-trifluoro-6-[2-methoxy-4-(trifluoromethoxy)phenoxy]benzamide] gave a pIC50 of 8.40. In the case of COc1cc(OC(F)(F)F)ccc1Oc1cnc(C(F)(F)F)c(F)c1C(=O)Nc1ccnc(C(N)=O)c1 [Compound 12, N-(2-Carbamoyl-4-pyridyl)-3-fluoro-5-[2-methoxy-4-(trifluoromethoxy)phenoxy]-2-(trifluoromethyl)pyridine-4-carboxamide], the pIC50 was 8.40. Molecule NC(=O)c1cc(NC(=O)c2c(Oc3ccc(OC(F)(F)F)cc3OC(F)F)ccc(C(F)(F)F)c2F)ccn1 [Compound 13, 4-[[6-[2-(difluoromethoxy)-4-(trifluoromethoxy)phenoxy]-2-fluoro-3-(trifluoromethyl)benzoyl]amino]pyridine-2-carboxamide] has a pIC50 of 8.40. Work on NC(=O)c1cc(NC(=O)c2c(Oc3ccc(OC(F)(F)F)c(Cl)c3)ccc(C(F)(F)F)c2F)ccc1F [Compound 14, N-(3-carbamoyl-4-fluoro-phenyl)-6-[3-chloro-4-(trifluoromethoxy)phenoxy]-2-fluoro-3-(trifluoromethyl)benzamide] yielded a pIC50 of 8.22. Molecule NC(=O)c1cc(NC(=O)c2c(Oc3ccc(OC(F)(F)F)cc3)ccc(C(F)(F)F)c2F)ccc1F [Compound 15, N-(3-carbamoyl-4-fluoro-phenyl)-2-fluoro-6-[4-(trifluoromethoxy)phenoxy]-3-(trifluoromethyl)benzamide] has a pIC50 of 8.15. COc1cc(OC(F)(F)F)ccc1Oc1ccc(C(F)(F)F)c(F)c1C(=O)Nc1ccc(C(N)=O)c(F)c1 [Compound 16, N-(4-carbamoyl-3-fluoro-phenyl)-2-fluoro-6-[2-methoxy-4-(trifluoromethoxy)phenoxy]-3-(trifluoromethyl)benzamide] showed a pIC50 of 8.15. With [2H]C([2H])([2H])Oc1cc(OC(F)(F)F)ccc1Oc1cc(C(F)(F)F)cc(F)c1C(=O)Nc1ccnc(C(N)=O)c1 [Compound 17, 4-[[2-fluoro-6-[2-(trideuteriomethoxy)-4-(trifluoromethoxy)phenoxy]-4-(trifluoromethyl)benzoyl]amino]pyridine-2-carboxamide] the pIC50 was 8.10. Molecule NC(=O)c1cc(NC(=O)c2c(Oc3ccc(OC(F)(F)F)c(F)c3)ccc(C(F)(F)F)c2F)ccc1F [Compound 18, N-(3-carbamoyl-4-fluoro-phenyl)-2-fluoro-6-[3-fluoro-4-(trifluoromethoxy)phenoxy]-3-(trifluoromethyl)benzamide] has a pIC50 of 8.05.

Same assay, conditions: HEK cells expressing human NaV 1.8, HS (human serum) in compound loading buffer, 11 point dose response, top dose 3 μM, Table 20A, read-out: Nav 1.8 MedChem Optical Assay EVIPR Assay Method A HS IC50
In the case of COc1cc(OC(F)(F)F)ccc1Oc1cc(C2C[C@@H]2C)ncc1C(=O)Nc1ccc(F)c(C(N)=O)c1 (mixture of isomers) [Compound 106, Racemic trans-N-(3-Carbamoyl-4-fluoro-phenyl)-4-[2-methoxy-4-(trifluoromethoxy)phenoxy]-6-(2-methylcyclopropyl)pyridine-3-carboxamide], the pIC50 was 7.82. Molecule COc1cc(OC(F)(F)F)ccc1Oc1cc(C2C[C@@H]2C)ncc1C(=O)Nc1ccnc(C(N)=O)c1 (mixture of isomers) [Compound 109, Racemic trans-4-(4-(2-Methoxy-4-(trifluoromethoxy)phenoxy)-6-(2-methylcyclopropyl)nicotinamido)picolinamide] has a pIC50 of 7.19. Molecule COc1cc(OC(F)(F)F)ccc1Oc1cc([C@H]2C[C@@H]2C)ncc1C(=O)Nc1ccnc(C(N)=O)c1 (single isomer, unassigned) [Compound 111] has a pIC50 of 6.70. COc1cc(OC(F)(F)F)ccc1Oc1cc([C@@H]2C[C@H]2C)ncc1C(=O)Nc1ccnc(C(N)=O)c1 (single isomer, unassigned) [Compound 112] was tested, and the pIC50 was 7.37. Molecule COc1cc(OC(F)(F)F)ccc1Oc1cc([C@H]2C[C@@H]2C)ncc1C(=O)Nc1ccc(F)c(C(N)=O)c1 (single isomer, unassigned) [Compound 113] has a pIC50 of 7.08. Molecule COc1cc(OC(F)(F)F)ccc1Oc1cc([C@@H]2C[C@H]2C)ncc1C(=O)Nc1ccc(F)c(C(N)=O)c1 (single isomer, unassigned) [Compound 114] has a pIC50 of 7.77.
